Experimental data published in the kinase profiling compilation of Christmann-Franck et al. (2016).

Experiments:
Test in all cases: radiometric filter-binding kinase assay, Kinase HotSpot
Conditions in all cases: compound 0.5 µM; ATP 10 µM
IRAK1 (human) = IRAK1 (human) (UniProt P51617)
RPS6KA6 KD1 KD2 (human) = RPS6KA6 KD1 KD2 (human) (UniProt Q9UK32)
HCK (human) = HCK (human) (UniProt P08631)
NEK4 (human) = NEK4 (human) (UniProt P51957)
FGFR3 (human) = FGFR3 (human) (UniProt P22607)
PRKX (human) = PRKX (human) (UniProt P51817)
STK16 (human) = STK16 (human) (UniProt O75716)
BRSK2 (human) = BRSK2 (human) (UniProt Q8IWQ3)
PRKACA (human) = PRKACA (human) (UniProt P17612)
WNK3 (human) = WNK3 (human) (UniProt Q9BYP7)
MYLK (human) = MYLK (human) (UniProt Q15746)
RPS6KA4 KD2 (human) = RPS6KA4 KD2 (human) (UniProt O75676)
PRKCA (human) = PRKCA (human) (UniProt P17252)
CDK6 CCND3 (human) = CDK6 CCND3 (human) (UniProt P30281+Q00534)
FGFR2 (human) = FGFR2 (human) (UniProt P21802)
GSK3A (human) = GSK3A (human) (UniProt P49840)
CLK2 (human) = CLK2 (human) (UniProt P49760)
DDR2 (human) = DDR2 (human) (UniProt Q16832)
LTK (human) = LTK (human) (UniProt P29376)
BLK (human) = BLK (human) (UniProt P51451)
JAK2 JH1 JH2 (human) = JAK2 JH1 JH2 (human) (UniProt O60674)
MAP3K7 TAB1 (human) = MAP3K7 TAB1 (human) (UniProt O43318+Q15750)
EPHA3 (human) = EPHA3 (human) (UniProt P29320)
MLTK (human) = MLTK (human) (UniProt Q9NYL2)
DYRK1A (human) = DYRK1A (human) (UniProt Q13627)
FGFR1 (human) = FGFR1 (human) (UniProt P11362)
WNK2 (human) = WNK2 (human) (UniProt Q9Y3S1)
SRPK1 (human) = SRPK1 (human) (UniProt Q96SB4)
PKN2 (human) = PKN2 (human) (UniProt Q16513)
PLK2 (human) = PLK2 (human) (UniProt Q9NYY3)
CAMKK2 (human) = CAMKK2 (human) (UniProt Q96RR4)
ZAP70 (human) = ZAP70 (human) (UniProt P43403)
MARK2 (human) = MARK2 (human) (UniProt Q7KZI7)
GRK6 (human) = GRK6 (human) (UniProt P43250)
STK39 (human) = STK39 (human) (UniProt Q9UEW8)
SIK2 (human) = SIK2 (human) (UniProt Q9H0K1)
CSK (human) = CSK (human) (UniProt P41240)
DAPK2 (human) = DAPK2 (human) (UniProt Q9UIK4)
CSNK2A1 (human) = CSNK2A1 (human) (UniProt P68400)
TTK (human) = TTK (human) (UniProt P33981)
ALK (human) = ALK (human) (UniProt Q9UM73)
ERBB4 (human) = ERBB4 (human) (UniProt Q15303)

Sequence of JAK2 JH1 JH2 (human) (O60674 whole entry, looked up): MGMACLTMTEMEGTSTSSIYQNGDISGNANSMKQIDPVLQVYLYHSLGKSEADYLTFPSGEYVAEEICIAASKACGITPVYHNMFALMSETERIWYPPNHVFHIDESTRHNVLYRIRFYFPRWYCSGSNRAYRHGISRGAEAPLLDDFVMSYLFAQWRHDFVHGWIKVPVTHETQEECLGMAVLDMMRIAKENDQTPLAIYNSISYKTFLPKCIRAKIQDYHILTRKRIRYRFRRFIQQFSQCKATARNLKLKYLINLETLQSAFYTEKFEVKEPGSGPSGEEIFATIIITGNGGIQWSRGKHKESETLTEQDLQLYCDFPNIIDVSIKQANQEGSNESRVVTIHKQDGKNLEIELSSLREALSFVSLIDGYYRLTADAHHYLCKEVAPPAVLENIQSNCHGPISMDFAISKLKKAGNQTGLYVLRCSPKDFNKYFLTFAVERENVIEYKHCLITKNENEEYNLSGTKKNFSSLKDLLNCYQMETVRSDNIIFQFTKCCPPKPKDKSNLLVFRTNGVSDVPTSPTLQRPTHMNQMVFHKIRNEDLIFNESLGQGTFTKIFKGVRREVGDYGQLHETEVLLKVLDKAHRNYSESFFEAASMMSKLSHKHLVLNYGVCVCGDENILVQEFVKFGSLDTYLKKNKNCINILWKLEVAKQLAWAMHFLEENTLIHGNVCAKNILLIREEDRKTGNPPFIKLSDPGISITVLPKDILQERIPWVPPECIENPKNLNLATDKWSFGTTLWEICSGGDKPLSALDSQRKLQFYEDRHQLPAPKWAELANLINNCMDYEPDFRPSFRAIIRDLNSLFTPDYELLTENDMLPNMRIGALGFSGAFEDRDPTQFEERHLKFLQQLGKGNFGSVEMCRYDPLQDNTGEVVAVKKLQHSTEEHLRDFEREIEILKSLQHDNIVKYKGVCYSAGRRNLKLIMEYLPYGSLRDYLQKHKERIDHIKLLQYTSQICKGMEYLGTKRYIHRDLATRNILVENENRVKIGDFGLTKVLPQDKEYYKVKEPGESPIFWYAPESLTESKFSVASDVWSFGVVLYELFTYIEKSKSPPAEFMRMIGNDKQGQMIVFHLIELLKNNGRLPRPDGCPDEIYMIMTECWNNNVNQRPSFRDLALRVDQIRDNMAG
Sequence of MYLK (human) (Q15746 whole entry, looked up): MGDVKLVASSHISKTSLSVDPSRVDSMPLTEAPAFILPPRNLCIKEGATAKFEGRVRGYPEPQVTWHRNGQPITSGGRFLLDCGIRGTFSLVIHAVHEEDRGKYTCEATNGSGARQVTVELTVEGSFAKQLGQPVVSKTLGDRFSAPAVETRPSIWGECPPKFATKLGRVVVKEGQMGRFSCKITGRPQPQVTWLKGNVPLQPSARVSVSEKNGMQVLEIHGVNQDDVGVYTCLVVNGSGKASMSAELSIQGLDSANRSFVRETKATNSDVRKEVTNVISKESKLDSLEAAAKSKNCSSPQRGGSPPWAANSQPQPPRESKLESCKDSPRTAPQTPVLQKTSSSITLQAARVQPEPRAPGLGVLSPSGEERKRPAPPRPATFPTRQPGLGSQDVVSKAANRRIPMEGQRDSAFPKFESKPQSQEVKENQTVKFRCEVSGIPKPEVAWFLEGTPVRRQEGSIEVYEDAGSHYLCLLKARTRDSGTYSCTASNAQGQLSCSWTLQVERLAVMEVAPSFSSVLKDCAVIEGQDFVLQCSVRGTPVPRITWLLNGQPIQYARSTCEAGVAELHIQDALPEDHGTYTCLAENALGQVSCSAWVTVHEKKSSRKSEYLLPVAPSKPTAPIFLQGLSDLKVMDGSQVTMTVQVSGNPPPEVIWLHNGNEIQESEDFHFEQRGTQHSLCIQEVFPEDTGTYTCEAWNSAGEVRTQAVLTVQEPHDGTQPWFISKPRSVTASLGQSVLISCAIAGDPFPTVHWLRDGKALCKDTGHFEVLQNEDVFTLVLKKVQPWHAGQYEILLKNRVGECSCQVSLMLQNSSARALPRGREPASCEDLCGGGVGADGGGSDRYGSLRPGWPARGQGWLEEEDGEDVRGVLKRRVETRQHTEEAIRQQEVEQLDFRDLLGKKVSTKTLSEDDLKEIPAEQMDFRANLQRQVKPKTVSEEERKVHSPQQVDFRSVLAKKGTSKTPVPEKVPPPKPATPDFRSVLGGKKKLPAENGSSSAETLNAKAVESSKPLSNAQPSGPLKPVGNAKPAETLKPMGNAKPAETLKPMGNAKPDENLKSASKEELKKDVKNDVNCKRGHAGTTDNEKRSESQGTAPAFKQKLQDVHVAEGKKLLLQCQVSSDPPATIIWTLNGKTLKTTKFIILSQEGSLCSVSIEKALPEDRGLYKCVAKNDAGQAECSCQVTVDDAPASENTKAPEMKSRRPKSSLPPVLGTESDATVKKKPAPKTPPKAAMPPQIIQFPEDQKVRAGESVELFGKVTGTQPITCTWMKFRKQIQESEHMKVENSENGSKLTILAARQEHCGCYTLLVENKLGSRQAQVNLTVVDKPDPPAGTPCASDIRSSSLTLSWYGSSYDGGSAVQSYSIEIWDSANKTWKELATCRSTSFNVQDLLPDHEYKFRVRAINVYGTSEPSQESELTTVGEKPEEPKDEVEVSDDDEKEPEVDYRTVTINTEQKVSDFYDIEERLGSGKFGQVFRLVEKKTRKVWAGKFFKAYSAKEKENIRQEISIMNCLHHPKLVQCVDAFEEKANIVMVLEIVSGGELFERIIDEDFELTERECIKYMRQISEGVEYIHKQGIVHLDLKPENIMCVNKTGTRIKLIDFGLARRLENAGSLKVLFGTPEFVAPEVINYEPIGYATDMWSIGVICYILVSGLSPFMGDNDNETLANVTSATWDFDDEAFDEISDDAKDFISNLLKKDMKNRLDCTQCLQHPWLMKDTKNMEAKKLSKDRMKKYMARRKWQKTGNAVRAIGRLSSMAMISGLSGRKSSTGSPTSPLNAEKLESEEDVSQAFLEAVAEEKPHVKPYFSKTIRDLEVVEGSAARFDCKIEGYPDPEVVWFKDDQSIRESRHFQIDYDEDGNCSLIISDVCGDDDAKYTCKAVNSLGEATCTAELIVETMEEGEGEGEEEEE
Sequence of STK16 (human) (O75716 whole entry, looked up): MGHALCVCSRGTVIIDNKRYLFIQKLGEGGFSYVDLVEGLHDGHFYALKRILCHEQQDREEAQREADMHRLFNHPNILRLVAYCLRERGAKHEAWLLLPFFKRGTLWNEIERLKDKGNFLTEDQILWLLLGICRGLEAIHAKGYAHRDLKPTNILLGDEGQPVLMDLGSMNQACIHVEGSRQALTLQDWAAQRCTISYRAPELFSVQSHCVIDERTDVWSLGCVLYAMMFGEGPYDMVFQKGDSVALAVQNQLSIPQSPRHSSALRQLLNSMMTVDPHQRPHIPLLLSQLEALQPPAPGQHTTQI
Sequence of IRAK1 (human) (P51617 whole entry, looked up): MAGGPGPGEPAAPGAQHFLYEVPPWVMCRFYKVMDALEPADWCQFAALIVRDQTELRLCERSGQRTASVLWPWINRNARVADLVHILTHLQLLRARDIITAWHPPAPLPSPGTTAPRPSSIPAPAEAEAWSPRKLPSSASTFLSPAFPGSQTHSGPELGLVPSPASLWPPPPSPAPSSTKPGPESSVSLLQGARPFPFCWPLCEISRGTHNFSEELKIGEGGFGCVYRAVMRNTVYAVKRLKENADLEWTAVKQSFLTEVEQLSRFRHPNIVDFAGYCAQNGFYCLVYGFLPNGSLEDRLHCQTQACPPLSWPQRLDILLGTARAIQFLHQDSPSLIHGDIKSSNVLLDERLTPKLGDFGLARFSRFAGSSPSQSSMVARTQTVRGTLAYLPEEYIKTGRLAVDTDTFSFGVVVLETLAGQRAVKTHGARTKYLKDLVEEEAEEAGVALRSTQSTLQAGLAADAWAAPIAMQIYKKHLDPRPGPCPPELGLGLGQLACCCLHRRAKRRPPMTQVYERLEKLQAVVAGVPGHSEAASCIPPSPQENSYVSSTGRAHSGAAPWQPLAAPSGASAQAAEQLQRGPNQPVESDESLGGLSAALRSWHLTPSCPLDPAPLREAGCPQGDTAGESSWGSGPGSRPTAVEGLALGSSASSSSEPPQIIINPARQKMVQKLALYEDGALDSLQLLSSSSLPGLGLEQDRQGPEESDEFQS
Sequence of HCK (human) (P08631 whole entry, looked up): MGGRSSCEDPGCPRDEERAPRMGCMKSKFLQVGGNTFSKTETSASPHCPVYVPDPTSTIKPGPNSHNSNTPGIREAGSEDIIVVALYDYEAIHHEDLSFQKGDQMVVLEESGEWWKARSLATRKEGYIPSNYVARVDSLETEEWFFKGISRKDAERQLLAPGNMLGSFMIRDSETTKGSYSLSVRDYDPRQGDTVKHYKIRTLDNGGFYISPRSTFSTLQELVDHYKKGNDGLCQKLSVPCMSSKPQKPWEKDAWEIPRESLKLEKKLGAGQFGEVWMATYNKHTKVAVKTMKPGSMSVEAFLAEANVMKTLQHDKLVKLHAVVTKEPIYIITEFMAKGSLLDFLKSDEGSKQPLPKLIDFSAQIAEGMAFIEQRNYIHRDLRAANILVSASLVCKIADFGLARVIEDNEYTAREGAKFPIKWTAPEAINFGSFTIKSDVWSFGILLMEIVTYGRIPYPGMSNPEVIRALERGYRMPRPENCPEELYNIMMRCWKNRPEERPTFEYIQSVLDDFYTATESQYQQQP
Sequence of CLK2 (human) (P49760 whole entry, looked up): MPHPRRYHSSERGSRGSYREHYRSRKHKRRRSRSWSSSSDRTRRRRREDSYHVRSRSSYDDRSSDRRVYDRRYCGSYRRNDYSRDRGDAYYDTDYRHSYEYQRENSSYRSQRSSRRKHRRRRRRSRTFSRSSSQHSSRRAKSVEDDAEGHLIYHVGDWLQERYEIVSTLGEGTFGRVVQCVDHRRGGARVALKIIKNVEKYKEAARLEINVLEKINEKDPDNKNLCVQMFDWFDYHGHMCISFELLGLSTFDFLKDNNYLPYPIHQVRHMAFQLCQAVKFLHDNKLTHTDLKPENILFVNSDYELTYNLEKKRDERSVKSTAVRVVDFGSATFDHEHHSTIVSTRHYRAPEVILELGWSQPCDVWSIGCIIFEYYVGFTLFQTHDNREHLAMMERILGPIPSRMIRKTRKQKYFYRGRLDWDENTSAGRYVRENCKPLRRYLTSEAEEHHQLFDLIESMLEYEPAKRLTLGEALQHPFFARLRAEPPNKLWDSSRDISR

CCCNC(=O)Nc1ccc(Oc2ncnc3cc(OC)c(OC)cc23)cc1Cl
residual activity (IRAK1 (human)): 106% | residual activity (RPS6KA6 KD1 KD2 (human)): 102% | residual activity (HCK (human)): 88.7% | residual activity (NEK4 (human)): 76% | residual activity (FGFR3 (human)): 84.5% | residual activity (PRKX (human)): 100% | residual activity (STK16 (human)): 93.4% | residual activity (BRSK2 (human)): 96.7% | residual activity (PRKACA (human)): 99.7% | residual activity (WNK3 (human)): 93.8% | residual activity (MYLK (human)): 97.4% | residual activity (RPS6KA4 KD2 (human)): 98.5% | residual activity (PRKCA (human)): 99.3% | residual activity (CDK6 CCND3 (human)): 89.5% | residual activity (FGFR2 (human)): 91.3% | residual activity (GSK3A (human)): 98.8% | residual activity (CLK2 (human)): 89.5% | residual activity (DDR2 (human)): 67.6% | residual activity (LTK (human)): 95.7% | residual activity (BLK (human)): 96.8% | residual activity (JAK2 JH1 JH2 (human)): 96.9% | residual activity (MAP3K7 TAB1 (human)): 103% | residual activity (EPHA3 (human)): 98.5% | residual activity (MLTK (human)): 103% | residual activity (DYRK1A (human)): 96.9% | residual activity (FGFR1 (human)): 75.4% | residual activity (WNK2 (human)): 100% | residual activity (SRPK1 (human)): 102% | residual activity (PKN2 (human)): 99.2% | residual activity (PLK2 (human)): 104% | residual activity (CAMKK2 (human)): 91.5% | residual activity (ZAP70 (human)): 102% | residual activity (MARK2 (human)): 96.2% | residual activity (GRK6 (human)): 95% | residual activity (STK39 (human)): 88% | residual activity (SIK2 (human)): 101% | residual activity (CSK (human)): 100% | residual activity (DAPK2 (human)): 108% | residual activity (CSNK2A1 (human)): 105% | residual activity (TTK (human)): 88.6%

CC(C)(C)c1nc2c3ccc(F)cc3c3c(=O)[nH]ccc3c2[nH]1
residual activity (IRAK1 (human)): 76.3% | residual activity (RPS6KA6 KD1 KD2 (human)): 33.9% | residual activity (HCK (human)): 84.8% | residual activity (NEK4 (human)): 65.6% | residual activity (FGFR3 (human)): 93% | residual activity (PRKX (human)): 79.2% | residual activity (STK16 (human)): 90.1% | residual activity (BRSK2 (human)): 21.4% | residual activity (PRKACA (human)): 97.9% | residual activity (WNK3 (human)): 90% | residual activity (ALK (human)): 20% | residual activity (MYLK (human)): 9.03% | residual activity (RPS6KA4 KD2 (human)): 44.7% | residual activity (PRKCA (human)): 65.6% | residual activity (CDK6 CCND3 (human)): 87.8% | residual activity (FGFR2 (human)): 99.1% | residual activity (GSK3A (human)): 121% | residual activity (CLK2 (human)): 93.9% | residual activity (LTK (human)): 20.6% | residual activity (BLK (human)): 93.5% | residual activity (JAK2 JH1 JH2 (human)): 1.37% | residual activity (MAP3K7 TAB1 (human)): 46.6% | residual activity (EPHA3 (human)): 89.2% | residual activity (MLTK (human)): 78.1% | residual activity (ERBB4 (human)): 99.9% | residual activity (DYRK1A (human)): 102% | residual activity (FGFR1 (human)): 75.8% | residual activity (WNK2 (human)): 105% | residual activity (SRPK1 (human)): 115% | residual activity (PKN2 (human)): 67.1% | residual activity (PLK2 (human)): 92.6% | residual activity (CAMKK2 (human)): 69.4% | residual activity (ZAP70 (human)): 88.9% | residual activity (MARK2 (human)): 41.5% | residual activity (GRK6 (human)): 48.2% | residual activity (STK39 (human)): 93.8% | residual activity (SIK2 (human)): 60.2% | residual activity (CSK (human)): 114% | residual activity (DAPK2 (human)): 18% | residual activity (CSNK2A1 (human)): 82.9% | residual activity (TTK (human)): 65.3%
